Experimental data reported in patent US10752591B2, “18-20 member bi-polycyclic compounds” (Haro Pharmaceutical Inc., priority 2014, dated 2020).

Legend:
[1] = target: T1, purified recombinant human HDAC-8 (Homo sapiens, UniProt Q9BY41); assay: HDAC-8 enzymatic inhibition (Boc-Lys(Tfa)-AMC / HDAC-Glo I/II); type: biochemical; settings: relative to compound 17
T1 construct: purchased Cayman Chem 10009465 (AMC assay (so in the source)); 19380 (HDAC-Glo assay)
T1 sequence (Q9BY41 1-377): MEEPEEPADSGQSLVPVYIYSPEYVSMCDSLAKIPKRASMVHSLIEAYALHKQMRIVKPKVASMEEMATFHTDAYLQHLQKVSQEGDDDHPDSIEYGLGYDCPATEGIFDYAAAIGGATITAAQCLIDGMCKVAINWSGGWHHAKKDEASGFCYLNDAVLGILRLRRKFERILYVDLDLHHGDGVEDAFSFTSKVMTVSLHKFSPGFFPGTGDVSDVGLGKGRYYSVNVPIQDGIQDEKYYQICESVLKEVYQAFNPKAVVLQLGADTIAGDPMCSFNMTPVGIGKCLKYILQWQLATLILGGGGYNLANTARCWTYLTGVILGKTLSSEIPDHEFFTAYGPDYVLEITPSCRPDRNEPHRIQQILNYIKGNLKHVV
Experimental: (§1) The effect of compounds on the enzymatic activity of purified recombinant human HDAC-1, -2, -3, -6, and -8 activity and of purified rat liver HDAC was examined by measuring the deacetylation of synthetic peptides in various preparations of HDACs. HDAC assays were performed using a two-step enzymatic reaction where enzyme activity is correlated to the release of […] (AMC). AMC fluorescence is measured in a fluorescent plate reading using λex380 nm and λen440 nm.
HDAC-8, HDAC-9, HDAC-10 and HDAC-11 were assayed using HDAC-Glo™ I/II Kit (Promega Corporation G6421) in a total volume of 110 μl following the manufacturer's instructions.
(§2) The reaction was allowed to proceed for 40 min at 37° C., after which developer solution (0.5% trypsin, 10 μM trichostatin A (TSA)) was added to obtain a final concentration of 0.1% trypsin, 2 μM TSA. After 30 minutes at room temperature, the amount of free fluorogenic AMC was measured as described above.

[2] = target: purified recombinant human HDAC-1 (Homo sapiens, UniProt Q13547); assay: HDAC-1 enzymatic inhibition (AMC fluorogenic peptide deacetylation); type: biochemical; settings: up to
Chain of purified recombinant human HDAC-1 (Q13547 whole entry): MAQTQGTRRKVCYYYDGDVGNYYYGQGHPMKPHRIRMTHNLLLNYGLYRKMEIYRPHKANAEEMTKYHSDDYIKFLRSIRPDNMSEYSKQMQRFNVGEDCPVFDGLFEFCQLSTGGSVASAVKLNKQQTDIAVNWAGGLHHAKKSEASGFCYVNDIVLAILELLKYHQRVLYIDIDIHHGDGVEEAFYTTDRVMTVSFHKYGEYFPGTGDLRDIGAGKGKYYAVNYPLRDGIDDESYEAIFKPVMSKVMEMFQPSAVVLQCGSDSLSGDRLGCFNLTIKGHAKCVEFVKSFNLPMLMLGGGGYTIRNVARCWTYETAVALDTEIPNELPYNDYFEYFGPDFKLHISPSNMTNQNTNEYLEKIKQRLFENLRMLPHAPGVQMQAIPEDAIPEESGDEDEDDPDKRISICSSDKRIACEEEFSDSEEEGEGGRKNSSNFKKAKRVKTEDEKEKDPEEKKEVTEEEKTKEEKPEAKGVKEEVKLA
Experimental: as §1, §2

[3] = test system: IMR-32 neuroblastoma cells; assay: cytotoxicity, cell survival (CellTiterGlo) in IMR-32; type: cell-based; settings: relative to compounds 17 and 8
Experimental: (§3) The cytotoxicity of compounds was examined and directly compared to compound 17, by measuring cell survival of clonal tumor cell lines IMR-32, BE2C (neuroblastoma), as well as MDA-MB-231, BT20, HCC-38 (Basal) and MCF7 (luminal) breast cancer cells (ATCC). Cells were cultured in phenol red-free RPMI medium supplemented with 10% FBS and 1 mM Ala-Glu. Typically, 10,000-20,000 cells/well were plated in a 96 well plate (Costar 3197). Cells were exposed to compounds or vehicle (1% DMSO final). Cells were maintained in the presence of compound for four or five days. Media and compounds were renewed every 48 hours. Cell survival was measured using the luminescence CellTiterGlo kit (Promega Corporation) and expressed as relative light unit as fold over DMSO.

RXR = assay: RXR-mediated transcription, RXRE luciferase reporter in MCF7 cells; type: cell-based
From the text: (§4) The effect of various compounds of the invention on RAR-mediated transcription in MCF7 breast cancer cells was examined by measuring their effect on the transcription of a luciferase reporter gene under the control of a TK promoter placed downstream of a RAR response element. In addition, the effect of the compounds on the closely related RXR-mediated transcription was examined by measuring their effect on the transcription of a luciferase reporter gene under the control of a TK promoter placed downstream of a RXR response element.
(§5) Typically, 10,000 cells were plated in 96 wells plates in phenol red-free RPMI medium supplemented with 10% charcoal-stripped Fetal Bovine Serum. After 24 hours, cells were transfected with 0.1 μg of luciferase reporter plasmid and 0.01 μg of a reporter plasmid expressing renilla luciferase (RLuc) gene under the control of a SV40 promoter, using Fugene 6 transfection reagent (0.5 μl/well Promega Corporation). Cells were treated in triplicate with compounds or vehicle (DMSO) for 24 hours. Luciferase and renilla luciferase activities were measured using Dual-Glo reagent (Promega Corporation). Luciferase activity was normalized in each well for renilla activity.

purified rat liver HDAC = purified rat liver HDAC inhibition; type: biochemical; settings: relative to compound 17
Experimental: as §1, §2

RAR = assay: RAR-mediated transcription, RARE-tk luciferase reporter in MCF7 cells; type: cell-based
From the text: as §4, §5

aqueous solubility = type: physicochemical
C2Cl2 cells [4] = assay: Q-RT PCR of myofiber-degradation associated genes in long term C2Cl2 cultures; type: cell-based; settings: day 10, normalized for RPLP0
Experimental: Quantitative RT-PCR was performed on RNA prepared from cell treated as in Example 9. At day 10 of the experiment, cells were rinsed in HBSS (without calcium or magnesium) and RNA was prepared using FastLane Cell cDNA Kit (Qiagen). Quantitative PCR was performed using Eppendorf and SYBR amplification mix (Sigma-Aldrich) using the gene specific primer combination given in Table 3. Data were normalized for ribosomal housekeeping gene RPLP0

mouse pharmacokinetics = type: in vivo; settings: mice
Experimental: Mouse pharmacokinetics studies were conducted in female athymic nude or male C57/B6 mice (n=3). Due to its very poor aqueous solubility, compound 17 was formulated in 66% PEG-400/33% H2O-1% Tween-80. In contrast compound 13 was formulated in 66% PEG-400/33% H2O. Compounds were administered PO (30 mg/kg) or IV (5 mg/kg), and plasma concentrations were measured by UV/HPLC.

C2Cl2 myoblasts = assay: myotube fusion and degeneration in differentiated C2Cl2 cells left in exhausted media; type: cell-based; settings: 200 nM pre-treatment
Experimental: C2Cl2 myoblasts were seeded at 100,000 in 30 mm plate in growth medium (Phenol red-free RMPI containing 10% FBS, Sodium pyruvate and Ala-Glu), and “pre-treated” with DMSO or 200 nM of compounds 13 or 17. At confluence cells were shifted to differentiation media (high glucose DMEM, +0.2% HS+1× Insulin/Transferrin/Selenium (Life Tech 41400-045)+Glutamine, without Pyruvate). Fully differentiated C2Cl2-derived myotubes were left in culture without media renewal for 8 days followed by media renewal and microscopic examination.

C2Cl2 cells [5] = assay: myoblast fusion in long term C2Cl2 cultures (MHC immunocytochemistry); type: cell-based; settings: for fusion of single cells into multinucleated C2Cl2 myotubes: long-term culture, suboptimal RPMI media with 2% horse serum
Experimental: The effect of compounds on myoblast fusion was examined in C2Cl2 cells maintained in RPMI media supplemented with 2% horse serum. C2Cl2 myoblastic cells where purchased from the American Type Culture Collection (ATCC) and maintained undifferentiated in RPMI media (Corning) supplemented with 2 mM L-Alanine-L-Glutamine (ATCC) and 1 mM pyruvate (Corning). Undifferentiated cells where maintained below 70% confluence. For long term cultures and compound treatment, cells where plated at high density CellBIND Culture Dishes (corning 3294, 3296, 3337) and in RPMI supplemented with 2% Horse Serum (Gibco) and 2 mM L-Alanine-L-Glutamine (ATCC) and 1 mM pyruvate (Corning). Compounds were dissolved in DMSO at 1000 time the final concentration and diluted 1-in-1000 in the media covering the cells. Media and compounds were changed daily. For immunocytochemistry, cells were fixed in 2% PFA in HBSS for 10 minutes and left in HBSS at 4° under humidified atmosphere and processed for immunocytochemistry. For myosin heavy chain detection (MHC), cells were first incubated in 100 ul-1 ml 0.15 M Glycine in DPBS for 10 minutes, rinse with DPBS. 100 ul-1 ml 0.5% Triton-X in DPBS was added for 10 minutes, rinsed with DPBS, and followed by incubation with 100 ul blocking agent (10% goat serum in DPBS) for 30 min at room temperature. MF20 primary antibody in 10% goat serum in DPBS was added at 1/60 dilution for 30 min at room temperature and rinsed three times with 100 ul DPBS. IgG2b goat anti mouse secondary antibody (Jackson Immuno-Research) was added at 1:1000 in 10% goat serum in DPBS for exactly 30 min at room temperature then rinsed 3 times with 100 ul DPBS. A final rinse in H2O was performed and cells were covered with two drops of Elvanol and cover gently with cover slip and allowed to dry in the dark for 24-48 hours.

[6] = test system: BE-2C neuroblastoma cells; assay: cytotoxicity, cell survival (CellTiterGlo) in BE-2C; type: cell-based; settings: BE-2C cells
Experimental: as §3

[7] = test system: MDA-MB-231 breast cancer cells; assay: cytotoxicity, cell survival (CellTiterGlo) in MDA-MB-231; type: cell-based; settings: MDA-MB-231 cells
Experimental: as §3

[8] = test system: Lys40 acetylated alpha tubulin; assay: intracellular acetylation of alpha-tubulin in BE-2C cells; type: cell-based; settings: 16 hours
Experimental: The effect of certain compounds on intracellular acetylation of target proteins was tested in high risk neuroblastoma cells, BE-2C and IMR-32 cells.
BE-2C cells were grown to confluence in phenol-red-free RPMI media supplemented with 10% FBS and 2.5 mM Ala-Glu. […] Total and Lys 40 acetylated alpha tubulin were detected using specific antibodies.
Beta actin, total and Lys382 acetylated p53, and Lys40 acetylated alpha, and total tubulin were detected using antibodies (Cell Signaling #8557, #2524 #2525, #12152 and #2144 respectively) using manufacturer recommended conditions.

[9] = mouse, plasma, PO (30 mg/kg) or IV (5 mg/kg), route per parameter not stated

Compound: CC1(C)CCC(C)(C)c2cc(-c3c[nH]c4ccc(C(=O)NO)cc34)ccc21 [Compound 5]
- times/fold more potent than compound 17 in HDAC-8 inhibition [1]: over 200
- maximal inhibition of HDAC-1 activity [2]: ~50%
- fold more potent than compounds 17 and 8 in killing IMR-32 cells [3]: ten
- transcriptional activation of RXR / RXRE-promoter (RXR): none
- times more potent than compound 17 in inhibition of purified rat hepatic HDAC (purified rat liver HDAC): six

Compound: CC1(C)CCC(C)(C)c2cc(-c3ccc4nc(C(=O)NO)ccc4c3)ccc21 [Compound 8]
- RARE-dependent luciferase expression (RAR): activated
- transcriptional activation of RXR / RXRE-promoter (RXR): none
- times more potent than compound 17 in inhibition of purified rat hepatic HDAC (purified rat liver HDAC): at least three

Compound: CC1(C)CCC(C)(C)c2cc(-c3ccc4cc(C(=O)NO)ccc4c3)ccc21 [Compound 17]
- aqueous solubility (aqueous solubility): very poor
- expression of Atrogin (C2Cl2 cells [4]): downregulates
- expression of myogenin (C2Cl2 cells [4]): downregulates
- transcriptional activation of RXR / RXRE-promoter (RXR): none
- F (mouse pharmacokinetics; PO (30 mg/kg) and IV (5 mg/kg)): 19.7%
- AUC(0-inf) (mouse pharmacokinetics; [9]): 28.7 µM·h
- Cmax (mouse pharmacokinetics; [9]): 2080 nM
- clearance (mouse pharmacokinetics; mouse, plasma, PO (30 mg/kg) or IV (5 mg/kg), route per parameter not stated, read-out: CLp): 10.2 mL/min/kg
- MRT (mouse pharmacokinetics; mouse, plasma, PO (30 mg/kg) or IV (5 mg/kg), route per parameter not stated, read-out: MRT): 7.1 h
- Tmax (mouse pharmacokinetics; mouse, plasma, PO (30 mg/kg) or IV (5 mg/kg), route per parameter not stated, read-out: Tmax): 4.3 h
- Vd (mouse pharmacokinetics; mouse, plasma, PO (30 mg/kg) or IV (5 mg/kg), route per parameter not stated, read-out: Vd,ss): 4.6 L/kg
- cellular fusion after 72 hours differentiation versus DMSO (C2Cl2 myoblasts): extensive cellular fusion
- myotube structural atrophy in exhausted media for over 8 days (C2Cl2 myoblasts): very little structural alteration
- myotubes' length and diameter versus DMSO (C2Cl2 cells [5]; 300 nM): longer and larger
- average nuclei per cell of polynucleated myotubes (C2Cl2 cells [5]; 300 nM, 10 days): 5-10 nuclei per cell
- fusion of single cells into multinucleated C2Cl2 myotubes (C2Cl2 cells [5]): enhances the fusion

Compound: CC1(C)CCC(C)(C)c2cc(-c3c[nH]c4cc(C(=O)NO)ccc34)ccc21 [Compound 18]
- maximal inhibition of HDAC-1 activity [2]: ~50%
- cytotoxic potency compared with compound 17, SAHA, Ricolinistat [6]: more potent than compound 17, SAHA or Ricolinistat
- RARE-dependent luciferase expression (RAR): activated
- cytotoxic potency compared with compound 17, SAHA, Ricolinistat [7]: more potent than compound 17, SAHA or Ricolinistat
- transcriptional activation of RXR / RXRE-promoter (RXR): none

Compound: CC1(C)CCC(C)(C)c2cc(-c3ccc4cc(C(=O)NO)[nH]c4c3)ccc21 [Compound 19]
- RARE-dependent luciferase expression (RAR): activated
- transcriptional activation of RXR / RXRE-promoter (RXR): none

Compound: CC1(C)CCC(C)(C)c2cc(-c3ccc4cc(C(=O)NO)cnc4c3)ccc21 [Compound 20, N-hydroxy-7-(5,5,8,8-tetramethyl-5,6,7,8-tetrahydronaphthalen-2-yl)quinoline-3-carboxamide]
- RARE-dependent luciferase expression (RAR): activated
- transcriptional activation of RXR / RXRE-promoter (RXR): none

Compound: CC1(C)CCC(C)(C)c2cc(-c3ccc4ccc(C(=O)NO)cc4c3)ccc21 [Compound 21, N-hydroxy-5′,5′,8′,8′,-tetramethyl-5′,6′,7′,8′-tetrahydro-[2,2′-binaphthalene]-7-carboxamide]
- transcriptional activation of RXR / RXRE-promoter (RXR): none

Compound: C/C(=C\c1ccc(C(=O)NO)cc1)c1ccc2c(c1)C(C)(C)CCC2(C)C [Compound B, (E)-N-hydroxy-4-(2-(5,5,8,8-tetramethyl-5,6,7,8-tetrahydronaphthalen-2-yl)prop-1-en-1-yl)benzamide]
- fusion of single cells into multinucleated C2Cl2 myotubes (C2Cl2 cells [5]): enhances the fusion

Compound: O=C(CCCCCCNC(=O)c1cnc(N(c2ccccc2)c2ccccc2)nc1)NO [Ricolinostat]
- Lysin (K) 40 alpha-Tubulin acetylation ([8]; 2 uM): pronounced Lysin (K) 40 alpha-Tubulin acetylation

Compound: O=C(CCCCCCC(=O)Nc1ccccc1)NO [SAHA, suberoylanilide hydroxamic acid]
- Lysin (K) 40 alpha-Tubulin acetylation ([8]; 2 uM): pronounced Lysin (K) 40 alpha-Tubulin acetylation

Compound: CC(/C=C/C(=O)NO)=C\[C@@H](C)C(=O)c1ccc(N(C)C)cc1 [TSA, trichostatin A]
- Lysin (K) 40 alpha-Tubulin acetylation ([8]; 1 uM): pronounced Lysin (K) 40 alpha-Tubulin acetylation
